Assay results published in publication PMC6514812, “[^18F]Fluoroethyltriazolyl Monocyclam Derivatives as Imaging Probes for the Chemokine Receptor CXCR4” (Molecules, 2019).

Legend:
[1] = Biodistribution in mice bearing bilateral PC3-WT/PC3-CXCR4 xenograft tumors; format: in vivo, BALB/c mice
Experimental: (§1) All animal studies were approved by the Institutional Animal Care and Use Committee of Weill Cornell Medicine (Protocol Number: 2015-0066) and were undertaken in accordance with the guidelines set forth by the USPHS Policy on Humane Care and Use of Laboratory Animals. Animals were housed under standard conditions in approved facilities with 12 h light/dark cycles. Food and water was provided ad libitum throughout the course of the studies. Hairless 6-to-8-week old male BALB/c inbred athymic nude mice (Jackson Laboratory, Bar Harbor, ME, USA) were inoculated bilaterally with 0.2 mL of a 1:1 mixture of 10^7 PC3-CXCR4 cells in PBS and Matrigel (Corning, Tewksbury, MA, USA) subcutaneously in the left shoulder and 0.2 mL of a 1:1 mixture of 10^7 PC3-WT cells in PBS and Matrigel subcutaneously in the right shoulder. Imaging and biodistribution studies were performed three weeks post-implantation, when tumors were approximately 100–300 mm^3.
(§2) For the biodistribution studies, tumor-bearing animals (n = 5/compound/time point) were injected intravenously with 50–100 μL of a 9% v/v EtOH/saline solution containing approximately 1.1 MBq of the radioligand. […] The mice were euthanized at 1 or 2 h p.i. and tissues including blood, heart, lungs, liver, small intestine, large intestine, stomach (with contents), spleen, pancreas, kidneys, muscle, bone, PC3-WT tumors, PC3-CXCR4 tumors, and tail were collected. All organs were weighed and placed in test tubes for counting in a Wizard^2 Gamma Counter (PerkinElmer, Waltham, MA, USA). For comparison, 1% injected activity standards were prepared and counted along with the tissue samples. The tails were counted to correct for any dose extravasation. Activity in each tissue was corrected for decay and for injected activity and expressed as percent injected dose per gram of tissue (%ID/g) ± standard error.

[2] = test system: PC3-CXCR4 xenograft tumors; assay: as above; format: in vivo, BALB/c mice
Experimental: as §1, §2

PC3-CXCR4 cells = assay: Cell-associated activity in PC3-CXCR4 cells; format: cell-based, human; conditions: 1 h
Experimental: Maximum cell-associated activity was calculated by subtracting the cell uptake of the radioactive ligand at the highest non-radioactive ligand concentration of 10 µM (which we considered to be non-specific uptake/binding) from the cell uptake at the lowest non-radioactive ligand concentration of 10^−5 µM.

CXCR4 [3] = target: T1, CXCR4 (Homo sapiens, UniProt P61073); assay: Saturation binding assay in PC3-CXCR4 cells; conditions: for Kd: saturation binding, PC3-CXCR4 cells; for Hill Slope, Saturation Binding Experiment: value ± SD
T1 construct: expressed in transfected cells; host or cells: PC3 (human prostate cancer) cells stably transduced with CXCR4
Experimental: To determine the dissociation constants, saturation binding assays were performed in the PC3-CXCR4 cells. The cells were plated as described above, and approximately 5 nM of the radioligand was added to each well. Then the corresponding non-radioactive ligand was added to give a final concentration in the range 0.001–10,000 nM. A total of eight concentrations were tested, and each concentration was tested in triplicate. The samples were washed and counted as described above. Non-specific binding was subtracted, and Kd values were determined by performing a nonlinear one site binding curve fit with equation y = (Bmax · x)/(Kd + x). Values are expressed as Kd ± standard deviation (Supplemental Data, Figure S8).

CXCR4 [4] = target: T1, CXCR4; assay: Competition binding assay vs [^68Ga]Pentixafor in PC3-CXCR4 cells; conditions: for IC50: vs 100 nM [^68Ga]Pentixafor, PC3-CXCR4 cells, 60 min 37 °C; for Hill Slope, Competitive Binding Experiment: vs [^68Ga]Pentixafor, value ± SD
Experimental: PC3-CXCR4 cells were plated in 12-well plates at a density of 500,000 cells per well and incubated for 48 h at 37 °C/5% CO2. Prior to the binding assay the cells were incubated in fresh media and 370–555 kBq of [^68Ga]Pentixafor or [^18F]RPS-544 was added to each well. The corresponding concentration of [^68Ga]Pentixafor in each well was 100 nM, and the concentration of [^18F]RPS-544 was approximately 5 pM. Then non-radioactive ligands were added to give a final ligand concentration in the range 0.001–10,000 nM. A total of eight concentrations were studied, and each concentration was tested in triplicate. The cells were incubated for 60 min at 37 °C/5% CO2. The media was removed under suction, the cells were washed with cold PBS 1X and detached and transferred to tubes for counting in 1 M NaOH. The cells were counted in a Wizard^2 Gamma Counter (PerkinElmer, Waltham, MA, USA). Non-specific binding was subtracted, and the IC50 values were determined by assuming a simple competitive binding interaction and fitting the data to a sigmoidal Hill plot in Origin 9.0 (OriginLab, Northampton, MA, USA). Potencies are expressed as IC50 ± standard deviation (Supplemental Data, Figure S7).

[5] = 1 h p.i., blocked by co-injection of 5 mg/kg AMD-3100

T1 sequence (P61073 whole entry): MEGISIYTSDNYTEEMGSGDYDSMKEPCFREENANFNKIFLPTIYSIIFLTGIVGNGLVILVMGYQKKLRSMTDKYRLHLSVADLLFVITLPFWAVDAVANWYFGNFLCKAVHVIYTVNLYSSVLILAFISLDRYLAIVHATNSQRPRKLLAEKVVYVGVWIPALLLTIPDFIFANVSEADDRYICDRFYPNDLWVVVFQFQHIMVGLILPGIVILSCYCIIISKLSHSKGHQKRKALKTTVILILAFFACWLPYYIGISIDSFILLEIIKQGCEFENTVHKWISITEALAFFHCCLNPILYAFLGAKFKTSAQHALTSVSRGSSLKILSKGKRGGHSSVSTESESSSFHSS

With `FCCn1cc(CNCc2ccc(CN3CCCNCCNCCCNCC3)cc2)nn1` [RPS-547] the Blood tissue activity ([1]; 1 h p.i.) was 0.28±0.06 %ID/g, the Blood tissue activity [1, 5] was 0.41±0.40 %ID/g and the Blood tissue activity ([1]; 2 h p.i.) was 0.08±0.01 %ID/g. It also gave a Bone tissue activity ([2]; 1 h p.i.) of 0.52±0.04 %ID/g, a Heart tissue activity ([2]; 1 h p.i.) of 0.18±0.04 %ID/g and a Kidneys tissue activity ([2]; 1 h p.i.) of 10.73 ± 1.10 %ID/g. The “Large Intestine tissue activity” value ([2]; 1 h p.i.) was 0.20±0.02 %ID/g, the Liver tissue activity ([2]; 1 h p.i.) was 6.59±1.00 %ID/g and the Lungs tissue activity ([2]; 1 h p.i.) was 0.48±0.05 %ID/g. For the same molecule, the Muscle tissue activity ([2]; 1 h p.i.) was 0.14±0.01 %ID/g, the “PC3-CXCR4 Tumor Uptake” value ([2]; 1 h p.i.) was 3.09 ± 0.52 %ID/g and the “PC3-CXCR4 Tumor-to-Tissue Ratio Blood” value ([2]; 1 h p.i.) was 10.1 ± 0.3. For the same molecule, the “PC3-CXCR4 Tumor-to-Tissue Ratio Bone” value ([2]; 1 h p.i.) was 5.9 ± 0.8, the “PC3-CXCR4 Tumor-to-Tissue Ratio Kidneys” value ([2]; 1 h p.i.) was 0.3 ± 0.2 and the “PC3-CXCR4 Tumor-to-Tissue Ratio Liver” value ([2]; 1 h p.i.) was 0.5 ± 0.2. For the same molecule, the “PC3-CXCR4 Tumor-to-Tissue Ratio Lungs” value ([2]; 1 h p.i.) was 6.2 ± 0.8, the “PC3-CXCR4 Tumor-to-Tissue Ratio Muscle” value ([2]; 1 h p.i.) was 20.3 ± 0.3 and the “PC3-CXCR4 Tumor-to-Tissue Ratio PC3-WT” value ([2]; 1 h p.i.) was 1.9 ± 0.3. For the same molecule, the PC3-WT tumor activity ([2]; 1 h p.i.) was 1.54±0.18 %ID/g, the Pancreas tissue activity ([2]; 1 h p.i.) was 0.20±0.01 %ID/g and the “Small Intestine tissue activity” value ([2]; 1 h p.i.) was 0.95±0.10 %ID/g. It also gave a Spleen tissue activity ([2]; 1 h p.i.) of 0.53±0.02 %ID/g, a Stomach tissue activity ([2]; 1 h p.i.) of 0.17±0.03 %ID/g and a Bone tissue activity [2, 5] of 0.22±0.12 %ID/g. For the same molecule, the Heart tissue activity [2, 5] was 0.14±0.19 %ID/g, the Kidneys tissue activity [2, 5] was 4.08±1.10 %ID/g and the “Large Intestine tissue activity” value [2, 5] was 0.23±0.06 %ID/g. For the same molecule, the Liver tissue activity [2, 5] was 4.13±0.50 %ID/g, the Lungs tissue activity [2, 5] was 0.35±0.15 %ID/g and the Muscle tissue activity [2, 5] was 0.18±0.35 %ID/g. For the same molecule, the PC3-CXCR4 tumor activity [2, 5] was 1.16±0.12 %ID/g, the PC3-WT tumor activity [2, 5] was 0.86±0.10 %ID/g and the Pancreas tissue activity [2, 5] was 0.22±0.04 %ID/g. The “Small Intestine tissue activity” value [2, 5] was 0.51±0.18 %ID/g, the Spleen tissue activity [2, 5] was 0.12±0.03 %ID/g and the Stomach tissue activity [2, 5] was 0.10±0.03 %ID/g. The “PC3-CXCR4 Tumor Uptake” value ([2]; 1 h p.i., listed as [^18F]RPS-547) was 3.1 ± 0.5 %ID/g, the Bone tissue activity ([2]; 2 h p.i.) was 0.31±0.02 %ID/g and the Heart tissue activity ([2]; 2 h p.i.) was 0.08±0.01 %ID/g. The Kidneys tissue activity ([2]; 2 h p.i.) was 5.60±0.56 %ID/g, the “Large Intestine tissue activity” value ([2]; 2 h p.i.) was 0.19±0.12 %ID/g and the Liver tissue activity ([2]; 2 h p.i.) was 5.18±0.27 %ID/g. The Lungs tissue activity ([2]; 2 h p.i.) was 0.24±0.02 %ID/g, the Muscle tissue activity ([2]; 2 h p.i.) was 0.09±0.02 %ID/g and the “PC3-CXCR4 Tumor-to-Tissue Ratio Blood” value ([2]; 2 h p.i.) was 24.0 ± 0.2. For the same molecule, the “PC3-CXCR4 Tumor-to-Tissue Ratio Bone” value ([2]; 2 h p.i.) was 6.3 ± 0.4, the “PC3-CXCR4 Tumor-to-Tissue Ratio Kidneys” value ([2]; 2 h p.i.) was 0.3 ± 0.1 and the “PC3-CXCR4 Tumor-to-Tissue Ratio Liver” value ([2]; 2 h p.i.) was 0.4 ± 0.2. For the same molecule, the “PC3-CXCR4 Tumor-to-Tissue Ratio Lungs” value ([2]; 2 h p.i.) was 8.2 ± 0.4, the “PC3-CXCR4 Tumor-to-Tissue Ratio Muscle” value ([2]; 2 h p.i.) was 11.0 ± 0.3 and the “PC3-CXCR4 Tumor-to-Tissue Ratio PC3-WT” value ([2]; 2 h p.i.) was 2.2 ± 0.2. For the same molecule, the PC3-CXCR4 tumor activity ([2]; 2 h p.i.) was 2.02±0.10 %ID/g, the PC3-WT tumor activity ([2]; 2 h p.i.) was 0.86±0.13 %ID/g and the Pancreas tissue activity ([2]; 2 h p.i.) was 0.11±0.00 %ID/g. For the same molecule, the “Small Intestine tissue activity” value ([2]; 2 h p.i.) was 0.80±0.01 %ID/g, the Spleen tissue activity ([2]; 2 h p.i.) was 0.36±0.04 %ID/g and the Stomach tissue activity ([2]; 2 h p.i.) was 0.11±0.02 %ID/g. For the same molecule, the “Cell-Associated Activity” value (PC3-CXCR4 cells) was 6.7 ± 2.8 %IA, the Kd (CXCR4 [3]) was 0.261 ± 0.022 µM and the “Hill Slope, Saturation Binding Experiment” value (CXCR4 [3]) was 1.03 ± 0.08. The IC50 (CXCR4 [4]) was 0.601 ± 0.118 µM and the “Hill Slope, Competitive Binding Experiment” value (CXCR4 [4]) was 0.97 ± 0.14.

`FCCn1cc(CCNCc2ccc(CN3CCCNCCNCCCNCC3)cc2)nn1` [RPS-552] gave a Blood tissue activity ([1]; 1 h p.i.) of 0.21±0.07 %ID/g, a Blood tissue activity [1, 5] of 0.27±0.06 %ID/g and a Bone tissue activity ([2]; 1 h p.i.) of 0.64±0.14 %ID/g. The Heart tissue activity ([2]; 1 h p.i.) was 0.13±0.03 %ID/g, the Kidneys tissue activity ([2]; 1 h p.i.) was 7.23 ± 2.66 %ID/g and the “Large Intestine tissue activity” value ([2]; 1 h p.i.) was 0.43±0.10 %ID/g. It also gave a Liver tissue activity ([2]; 1 h p.i.) of 4.36±0.24 %ID/g, a Lungs tissue activity ([2]; 1 h p.i.) of 0.50±0.04 %ID/g and a Muscle tissue activity ([2]; 1 h p.i.) of 0.15±0.04 %ID/g. The “PC3-CXCR4 Tumor Uptake” value ([2]; 1 h p.i.) was 2.52 ± 0.11 %ID/g, the “PC3-CXCR4 Tumor-to-Tissue Ratio Blood” value ([2]; 1 h p.i.) was 11.9 ± 0.1 and the “PC3-CXCR4 Tumor-to-Tissue Ratio Bone” value ([2]; 1 h p.i.) was 4.0 ± 0.2. The “PC3-CXCR4 Tumor-to-Tissue Ratio Kidneys” value ([2]; 1 h p.i.) was 0.3 ± 0.3, the “PC3-CXCR4 Tumor-to-Tissue Ratio Liver” value ([2]; 1 h p.i.) was 0.6 ± 0.1 and the “PC3-CXCR4 Tumor-to-Tissue Ratio Lungs” value ([2]; 1 h p.i.) was 5.0 ± 0.1. The “PC3-CXCR4 Tumor-to-Tissue Ratio Muscle” value ([2]; 1 h p.i.) was 16.7 ± 0.1, the “PC3-CXCR4 Tumor-to-Tissue Ratio PC3-WT” value ([2]; 1 h p.i.) was 2.5 ± 0.3 and the PC3-WT tumor activity ([2]; 1 h p.i.) was 1.00±0.23 %ID/g. For the same molecule, the Pancreas tissue activity ([2]; 1 h p.i.) was 0.26±0.05 %ID/g, the “Small Intestine tissue activity” value ([2]; 1 h p.i.) was 0.54±0.06 %ID/g and the Spleen tissue activity ([2]; 1 h p.i.) was 0.92±0.08 %ID/g. The Stomach tissue activity ([2]; 1 h p.i.) was 0.14±0.07 %ID/g, the Bone tissue activity [2, 5] was 0.31±0.07 %ID/g and the Heart tissue activity [2, 5] was 0.18±0.08 %ID/g. For the same molecule, the Kidneys tissue activity [2, 5] was 4.41±1.01 %ID/g, the “Large Intestine tissue activity” value [2, 5] was 0.22±0.03 %ID/g and the Liver tissue activity [2, 5] was 3.15±0.70 %ID/g. It also gave a Lungs tissue activity [2, 5] of 0.49±0.09 %ID/g, a Muscle tissue activity [2, 5] of 0.45±0.67 %ID/g and a PC3-CXCR4 tumor activity [2, 5] of 1.20±0.43 %ID/g. For the same molecule, the PC3-WT tumor activity [2, 5] was 0.85±0.21 %ID/g, the Pancreas tissue activity [2, 5] was 0.25±0.04 %ID/g and the “Small Intestine tissue activity” value [2, 5] was 0.80±0.11 %ID/g. For the same molecule, the Spleen tissue activity [2, 5] was 0.70±0.11 %ID/g, the Stomach tissue activity [2, 5] was 0.20±0.20 %ID/g and the “Cell-Associated Activity” value (PC3-CXCR4 cells) was 3.5 ± 0.1 %IA. For the same molecule, the Kd (CXCR4 [3]) was 0.314 ± 0.048 µM, the “Hill Slope, Saturation Binding Experiment” value (CXCR4 [3]) was 0.93 ± 0.14 and the IC50 (CXCR4 [4]) was 0.515 ± 0.068 µM. The “Hill Slope, Competitive Binding Experiment” value (CXCR4 [4]) was 1.18 ± 0.07.
